Data as given in patent publication US5340806A, “Composition containing organogermanium compound and immunity adjusting agent comprising the composition” (Sanwa Kagaku Kenkyusho Co., Ltd., priority 1984, dated 1994).
Where two headings read alike, the source gives them in different places.

Experiments:
[1] = design: species or system human; settings: in vivo
Experimental: A capsule containing various amount of effective organogermanium compound were dosed to each of healthy adult persons to check kinetics of the drug. […] The excretion ratio of the drug in urine was 30-50% in cases of any dose.
Therefore, it has been judged that the influence of the hepatitis on pharmakinetics of the drug is small.

[2] = test system: positive Arthus reaction in guinea pigs; experiment: Positive Arthus reaction in guinea pig; format: in vivo, Hartley male guinea pigs; settings: 30 days, FIG. 11
Experimental: To 2% egg albumin solution, the same amount of Freund's complete adjuvant was added to prepare an emulsion. The emulsion was injected in 4 times by one time/week to Hartley male guinea pigs at a heel, under the skin and in the femoralis muscle, for sensitization. After 10 days from the final sensitization, 0.1 ml of 1% egg albumin solution was injected under the skin of the back to measure the area of resulting edema. The organogermanium compound was orally dosed for 30 days from the first sensitization in an amount of 0.1, 1.0 and 10 mg/kg/day.

[3] = test system: adjuvant arthritis in rats; experiment: Adjuvant arthritis in rats; format: in vivo, S.D. male rats; settings: 100 mg/kg/day oral, FIG. 12
Experimental: 0.05 ml of an adjuvant (prepared by suspending 0.6 mg of micobacteriumbutircum into 0.05 ml of liquid paraffin) was injected under the skin of a hind leg heel in S.D. male rats. After 1, 3, 5, 7, 21, and 28 days from the adjuvant dosage, the volume of the dosed and non-dosed legs was measured to determine a ratio of the edema.
The organogermanium compound was orally dosed for 28 days after the adjuvant dosage, in an amount of 1, 10 and 100 mg/kg/day, respectively.

BALB/C mouse lymphocytes = experiment: Antibody production in culture system of BALB/C mouse lymphocytes; format: cell-based, BALB/C male mice
LD50 for beagle dog = settings: in vivo
chronic B hepatitis [4] = format: in vivo, human patients
Experimental: (§1) Search on effectiveness of the organogermanium compound to chronic B and non A non B hepatitises and preferable amount of dose thereof.
Therefore, 30 mg, 60 mg and 90 mg/day/body were set. Experimental period of time was set for 12 weeks.
(a) Examination of liver functions (GOT, GPT, A 1-P, and γ-GTP), and
(b) Examination with use of HBV markers (HBe-Ag, HBe-Ab and DNA-P).

[5] = test system: spleen cells (PFC), Sarcoma 180 cancered mice; experiment: Antibody production ability in cancered mouse (spleen cell PFC); format: in vivo, ICR male mice; settings: oral for 5 days, depending on dosing amount; FIG. 9
Experimental: 2×10^6 cells of a mouse tumor cell (Sarcoma 180) were implanted under the skin of a side part of ICR male mice to form a solid cancer. The organogermanium compound (Compound No. 1 in Table 1) dissolved in 4% cattle serum albumin solution was orally dosed to the cancered mice for 5 days, after 9 days had elapsed from the implantation, 2×10^8 corpuscles of SRBC were injected in a tail vein of the mice for sensitization. After 4 days from the sensitization, spleen cells were extracted to measure of PFC therein, which was used as an index of the antibody productivity.

[6] = test system: chronic non A non B hepatitis; experiment: Chronic non A non B hepatitis, 30/60/90 mg/day, 12 weeks (Table 4B); format: in vivo, human patients
Experimental: as §1
Therefore, 30 mg, 60 mg and 90 mg/day/body were set. Experimental period of time was set for 12 weeks. […]

[7] = test system: spleen cells (PFC), SRBC sensitized mice; experiment: Antibody production ability in normal mouse (spleen cell PFC); format: in vivo, ICR mice; settings: 0.1, 1.0 and 10 mg/kg oral
Experimental: To each group of ICR mice (age, 5 weeks), 2×10^8 and 2 ×10^7 of sheep red blood corpuscles (SRBC), as an […], were venously injected for sensitization in a tail vein of the mice. Then, immediately, the organogermanium compound dissolved in 4% cattle serum albumin solution was orally dosed to the sensitized mice in an amount of 0.1, 1.0 and 10 mg/kg, respectively. After 4 days from the sensitization, spleen cells were extracted to measure the number of PFC therein, which was used as an index of the antibody productivity.

[8] = test system: NZB/W F1 mouse lymphocytes; experiment: Antibody production in culture system of NZB/W F1 mouse lymphocytes; format: cell-based, NZB/W F1 male mice; settings: 1 to 2 μg/ml; FIG. 10a
chronic B hepatitis [9] = experiment: Chronic B hepatitis, 16 weeks, 30 mg/day/body (In Vivo Utilization Example 5); design: species or system human patients

3-oxygermylpropionic acid [Compound No. 1]
excretion ratio of the drug in urine ([1]; human, po): 30-50% | time to maximum plasma concentration ([1]; human, po): 3 h | AUC versus dose [1]: AUC increases as the amount of dose increases | AUC, Cmax and excretion ratio in urine, hepatitis patients versus healthy persons [1]: tended to increase | plasma concentration on first day versus 7th day [1]: same level | tendency to accumulate [1]: does not show a tendency to accumulate | inhibition of phlegmasia (edema area) ([2]; 0.1 mg/kg/day oral): a recognizable inhibition of the phlegmasia | inhibition of phlegmasia (edema area) ([2]; 1 mg/kg/day oral): a recognizable inhibition of the phlegmasia | effect on secondary phlegmasia after 14 to 28 days [3]: an inhibition effect to a secondary phlegmasia | antibody producing function (BALB/C mouse lymphocytes; 10 μg/ml, FIG. 10b): an acceleration of the function | antibody producing function (BALB/C mouse lymphocytes; 1 to 2 μg/ml): no change | 15 mg/body as fraction of LD50 for beagle dog (LD50 for beagle dog): 1/12000 | Effectiveness (slight or more) (chronic B hepatitis [4]; 30 mg/day): 55% | General judgement: Improvement (slight or more) (chronic B hepatitis [4]; 30 mg/day): 52% | HBV markers: Improvement (slight or more) (chronic B hepatitis [4]; 30 mg/day): 36% | A 1-P change (chronic B hepatitis [4]; 30 mg/day, 12 weeks): .dwnarw. * | DNA-P change (chronic B hepatitis [4]; 30 mg/day, 12 weeks): .dwnarw. + | GOT change (chronic B hepatitis [4]; 30 mg/day, 12 weeks): .dwnarw. * | GPT change (chronic B hepatitis [4]; 30 mg/day, 12 weeks): .dwnarw. + | HBe-Ab change (chronic B hepatitis [4]; 30 mg/day, 12 weeks): .uparw. * | HBe-Ag (log conversion) change (chronic B hepatitis [4]; 30 mg/day, 12 weeks): .dwnarw. ** | γ-GTP change (chronic B hepatitis [4]; 30 mg/day, 12 weeks): .dwnarw. * | Effectiveness (slight or more) (chronic B hepatitis [4]; 60 mg/day): 47% | General judgement: Improvement (slight or more) (chronic B hepatitis [4]; 60 mg/day): 37% | HBV markers: Improvement (slight or more) (chronic B hepatitis [4]; 60 mg/day): 27% | HBe-Ab change (chronic B hepatitis [4]; 60 mg/day, 12 weeks): .uparw. + | Effectiveness (slight or more) (chronic B hepatitis [4]; 90 mg/day): 47% | General judgement: Improvement (slight or more) (chronic B hepatitis [4]; 90 mg/day): 43% | HBV markers: Improvement (slight or more) (chronic B hepatitis [4]; 90 mg/day): 15% | HBe-Ab change (chronic B hepatitis [4]; 90 mg/day, 12 weeks): .uparw. ** | ability to produce antibodies (PFC) [5]: the ability to produce antibodies recovers towards a normal level | Effectiveness (slight or more) ([6]; 30 mg/day): 31% | General judgement: Improvement (slight or more) ([6]; 30 mg/day): 29% | Safety (quite) ([6]; 30 mg/day): 92% | Side effect ([6]; 30 mg/day): 8.3% | Effectiveness (slight or more) ([6]; 60 mg/day): 44% | General judgement: Improvement (slight or more) ([6]; 60 mg/day): 45% | Safety (quite) ([6]; 60 mg/day): 91% | Side effect ([6]; 60 mg/day): 8.8% | A 1-P change ([6]; 60 mg/day, 12 weeks): .dwnarw. ** | GOT change ([6]; 60 mg/day, 12 weeks): .dwnarw. ** | GPT change ([6]; 60 mg/day, 12 weeks): .dwnarw. * | Effectiveness (slight or more) ([6]; 90 mg/day): 38% | General judgement: Improvement (slight or more) ([6]; 90 mg/day): 41% | Safety (quite) ([6]; 90 mg/day): 90% | Side effect ([6]; 90 mg/day): 10.0% | spleen cell PFC ([7]; SRBC 2×10^7, FIG. 8b): increase it | spleen cell PFC ([7]; SRBC 2×10^8, FIG. 8a): tendancy to decrease spleen cell PFC | antibody production ability [8]: an inhibition in antibody production ability | suppressor T lymph cell and other CD8 positive cells (chronic B hepatitis [9]; Two-color analysis): A significant reduction | HBe antigen (chronic B hepatitis [9]; after 8 and 12 weeks): A significant reduction of HBe antigen | HBe antibody (chronic B hepatitis [9]; after 8 weeks): Significant increase of HBe antibody | patients changed to SC (chronic B hepatitis [9]; among 33 HBe antigen positive): 2 Patients | patients changed from positive to negative DNA-polymerase (chronic B hepatitis [9]; end of experiment, 4 patients): 14% | improvement in liver functions, HBe antigen positive versus negative groups (chronic B hepatitis [9]; in vivo): no significant difference | ratio of improvement in functions of liver (chronic B hepatitis [9]; middle or more): 30% | ratio of improvement in functions of liver (chronic B hepatitis [9]; slight or more): 50%
